Blank lines part the entries; values can stand above or below the molecule they belong to.
Legend:
[1] = Heat solubilization in Kolliphor RH-40; format: physicochemical
Description: Step 1. […] Step 3. […] Step 4. […] About 5% solution was stable. Step 1. […] Step 3.

[2] = Stability in alkaline toothpaste with sodium bicarbonate and peroxide; format: physicochemical; conditions: high pH ~10-10.5; sodium bicarbonate, sodium carbonate peroxide, peroxide stabilizer
Experimental: It was experimentally determined that the toothpaste formulations containing both sodium bicarbonate and sodium carbonate peroxide together with stabilizing polymer formulations had pHs of ˜10-10.5. When aglycone flavone (i.e., apigenin and luteolin) powders were added to dentifrices including sodium bicarbonate, sodium bicarbonate peroxide and a peroxide stabilizer, it was also determined that soluble flavone sodium salts were formed that were stable in these highly oxidative peroxide compositions. The presence of stable soluble alkali metal flavone salts with highly anti-oxidant and anti-inflammatory properties in an emulsion formulation was totally unanticipated since aglycone flavones are prone to oxidative decomposition. Curcumin calcium chelate was fabricated and found to be stable in high pH PeroxiCare® toothpaste. Other curcumin chelates (Boron, Zn) were also found to be stable in this formulation, but were not tested in this study. This study was designed to determine if curcumin solubilized using either a heat solubilization or chelated salt technology performed in the same way as earlier results with the flavone apigenin. Vanillin is a breakdown product of curcumin and would be present if the curcumin had substantially decomposed (the lack of vanillin is indicative of a stable delivery of curcumin).

[3] = Saliva concentrations of chronic 1% apigenin toothpaste users (Example 12); format: in vivo, human; conditions: chronic users of PeroxiCare with 1% apigenin
Experimental: Two subjects who have used PeroxiCare® with apigenin at a 1% concentration on a chronic basis provided saliva samples at:
(§1) Saliva was collected at each time point in 50 ml Falcon tubes and immediately transferred to a freezer. All samples were transported to Tufts University within 24 hours of collection. Apigenin in saliva was quantified using high performance liquid chromatograph (HPLC) with electrochemical detection (ECD). Apigenin in 1 ml saliva was extracted using 3 ml acetonitrile. After 2 min of rigorous vortexing, the mixture was spun at 2,000 rpm for 15 min at 4° C. Supernatant was dried under N2 gas, reconstituted with mobile phase A, and analyzed for apigenin with HPLC-ECD. The limit of quantification (LOQ) for apigenin and EGCG in this assay is 15 and 25 ng/ml saliva, respectively.

[4] = Apigenin and EGCG in saliva following use of formulated toothpastes (Example 15); format: in vivo, human; conditions: formulated into a toothpaste product
Experimental: This is a clinical study testing the effect of using one of 3 toothpaste products formulated with apigenin and epigallocatechin gallate (EGCG) on the retention of these flavonoids in the saliva. Briefly, 3 subjects provided saliva samples:
Each subject brushed their teeth for 2 min using the sulcular brushing technique with ˜1.8 gm toothpaste on a new toothbrush. Each subject brushed with only one of 3 products:
Saliva was collected at each time point in 50 mL Falcon tubes and immediately transferred to a freezer. All samples were transported to Tufts University within 8 hours of collection.
as §1, with “Apigenin” for “Saliva was collected at each time point in 50 ml Falcon tubes and immediately transferred to a freezer. All samples were transported to Tufts University within 24 hours of collection. Apigenin”, “Apigenin and EGCG” for “Apigenin”, “1 mL” for “1 ml”

[5] = Colorimetric retention of EGCG in saliva after brushing (Example 14); format: in vivo, human; conditions: PeroxiCare toothpaste with 0.1 wt. % EGCG and 0.1 wt. % ascorbic acid, pH ~10.5; saliva after brushing and rinsing
Experimental: A saliva sample with an EGCG containing alkaline toothpaste was obtained (1) before brushing and (2) 1 minute after brushing immediately after rinsing. The subject brushed for 2 minutes using the sulcular brushing technique with ˜1.8 gm toothpaste on a toothbrush.
A 5 ml sample of saliva was collected 10 minutes prior to brushing. Tooth brushing was conducted for 2 minutes with 1.8 gm of toothpaste applied to the brush. One minute after brushing, the oral cavity was rinsed with 50 ml of water. Following rinsing, about 8 ml of saliva was collected. The pH of the saliva was measured. In addition, the saliva samples were further made alkaline with the addition of NaOH crystals and the color of the resulting sample noted.

[6] = Water solubility of flavonoid classes (Table XXIII); format: physicochemical; conditions: 20° C.
[7] = Stability of aqueous microemulsions as a function of pH; format: physicochemical; conditions: nonionic surfactants Polysorbate 80 and Cremophor/Kolliphor RH-40
Description: Stable microemulsions with apigenin and the nonionic surfactants, Polysorbate 80 and Cremophor/Kolliphor RH-40, were achieved provided a pH level of 8.0 to 8.5 was maintained. For luteolin, it as determined that a pH of 7 was required to maintain a stable aqueous microemulsion; and for resveratrol, a pH of >4.5 to 7.5.

[8] = Solubilization in Listerine mouth rinse as sodium salt; format: physicochemical
Experimental: 100 Grams of the Listerine® Resveratrol Containing Mouth Rinse Formulation was Prepared as Follows: • 1. 98.4 grams of the Listerine® caramel colored mouth rinse was added to a 300 ml Pyrex glass beaker. […] About 0.2 grams of fine NaOH crystals were added to the mixture from Step 2 and thoroughly mixed. A uniformly caramel colored blend resulted with a measured pH of ˜10. […] The pH of the mixture from Step 3 was adjusted to a pH 6.5 by the addition of about 0.2 grams of citric acid crystals. […] • 1. 98.6 grams of the Listerine® caramel colored mouthrinse was added to a 300 ml Pyrex glass beaker. […] About 0.2 grams of fine NaOH crystals were added to the mixture from Step 2 and thoroughly mixed. A uniformly caramel colored blend resulted with a measured pH of ˜10. […] The pH of the mixture from Step 2 was adjusted to a pH 8 by the addition of about 0.2 grams of citric acid crystals.

apigenin solubilized in RH-40 [1]: more than 5% | stability in alkaline peroxide toothpaste (PeroxiCare) [2]: stable | persistence of apigenin levels in saliva post-brushing [3]: at least 8 hours | time found in saliva following toothpaste use [4]: at least one hour | stable apigenin concentrate in PS80 (5.0 wt. % apigenin in PS80, heated approaching 300 degree C, cooled to ambient): 50 mg/mL
Molecule: O=c1cc(-c2ccc(O)cc2)oc2cc(O)cc(O)c12 [Apigenin, 4′,5,7,-trihydroxyflavone]

retention of EGCG in saliva by color change on alkalizing [5]: retained after brushing | time found in saliva following toothpaste use [4]: at least one hour
Molecule: O=C(O[C@@H]1Cc2c(O)cc(O)cc2O[C@@H]1c1cc(O)c(O)c(O)c1)c1cc(O)c(O)c(O)c1 [Epigallocatechin Gallate (EGCG), Epigallocatechin gallate]

Water Solubility [6]: ~5 mg/mL | PS80 Solubility (20° C., thermal processing method, not the maximum solubility levels): 50 mg/mL
Molecule: O.Oc1cc(O)c2c(c1)O[C@H](c1ccc(O)c(O)c1)[C@@H](O)C2 [Catechin]

Molecule: O=c1cc(-c2ccc(O)c(O)c2)oc2cc(O)cc(O)c12 [luteolin, 3′,4′,5,7-tetrahydroxyflavone]
pH required to maintain a stable aqueous microemulsion [7]: 7 | stability in alkaline peroxide toothpaste (PeroxiCare) [2]: stable | luteolin concentration of transparent solution ([8]; adjusted to pH 8): 1.5 mg/mL

resveratrol concentration of transparent solution ([8]; adjusted to pH 6.5): 1.2 mg/mL
Molecule: Oc1ccc(C=Cc2cc(O)cc(O)c2)cc1 [resveratrol]

behaviour in Kolliphor RH-40 ([1]; equivalent concentration of 20% curcumin): precipitates out | stable solution in Kolliphor RH-40 ([1]; heat solubilized): About 5% | stability in alkaline peroxide toothpaste (PeroxiCare) [2]: stable
Molecule: calcium-curcumin chelate
